The target of assay [1] is T1, Human μ-opioid (MOP) (Homo sapiens, UniProt P35372).
T1 construct: purchased Perkin Elmer Biosignal
In words: Radioligand binding, human μ-opioid (MOP) membranes, FlashPlate, [3H]-Naloxone. The conditions noted are these: compound at 10 μM; [3H]-Naloxone. The gist of the method:
(§1)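 Cloned human receptor membranes were coated onto FlashPlate wells and incubated with radioligand and compound (added from a 0.5 mM DMSO daughter plate) for 1 hour at room temperature in the dark. Scintillation counting gave percent inhibition, with DMSO defining total and reference ligand defining non-specific binding.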

For assay [2], the target named is T2, Mouse urotensin (mUR2) (Mus musculus, UniProt Q8VIH9).
T2 construct: purchased Perkin Elmer Biosignal
T2 sequence (Q8VIH9 1-385): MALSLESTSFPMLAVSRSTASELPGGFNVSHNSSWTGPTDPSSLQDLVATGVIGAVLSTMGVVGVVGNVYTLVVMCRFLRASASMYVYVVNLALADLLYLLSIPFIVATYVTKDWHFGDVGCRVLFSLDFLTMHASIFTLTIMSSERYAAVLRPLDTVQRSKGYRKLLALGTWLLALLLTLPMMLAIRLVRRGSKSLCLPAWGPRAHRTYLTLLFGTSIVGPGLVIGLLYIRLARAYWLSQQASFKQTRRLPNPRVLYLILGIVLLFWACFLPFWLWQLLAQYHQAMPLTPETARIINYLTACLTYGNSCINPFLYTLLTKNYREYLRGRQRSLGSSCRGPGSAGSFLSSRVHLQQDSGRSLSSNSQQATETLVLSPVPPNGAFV
In words: Radioligand binding, mouse urotensin mUR2 membranes, FlashPlate, [125I]-Urotensin II. The conditions noted are these: compound at 10 μM; [125I]-Urotensin II. In outline: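 Cloned mouse urotensin (mUR2) receptor membranes from Perkin Elmer Biosignal were immobilized in FlashPlate microplates using a proprietary coating. Each well got 19.5 μl buffer, then 0.5 μl of DMSO, reference ligand, or compound. Adding 5 μl of [125I]-Urotensin II, diluted to 5× final concentration in binding buffer, started binding. Plates were sealed with TopSeal-A and incubated 1 hour at room temperature in the dark. Wells were counted for 30 seconds each on a TopCount after a 60-second delay, and percentage inhibition was calculated.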

The target in assay [3] is T3, Human neurokinin (NK1) (Homo sapiens, UniProt P25103).
T3 construct: purchased Perkin Elmer Biosignal
Put plainly: Radioligand binding, human neurokinin NK1 membranes, filtration, [125I]-Substance P. The conditions noted are these: compound at 10 μM, [125I]-Substance P. The gist of the method: (§2)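 Membranes from cloned human receptors were incubated with compound and radioligand for 1 hour at room temperature. Bound ligand was collected on 0.3% PEI-soaked filters, washed with cold 50 mM Tris-HCl pH 7.4, and counted by scintillation. Percent inhibition was computed against DMSO totals and reference-ligand nonspecific wells.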

Assay [4] has as its target T4, Human opioid (ORL1) (Homo sapiens, UniProt P41146).
T4 construct: purchased Perkin Elmer Biosignal
Put plainly: Radioligand binding, human opioid ORL1 membranes, FlashPlate, [125I]-Nociceptin. The conditions noted are these: compound at 10 μM; [125I]-Nociceptin. In outline: as §1

For assay [5], the target named is T5, Human κ-Opioid (KOP) (Homo sapiens, UniProt P41145).
T5 construct: purchased Perkin Elmer Biosignal
Put plainly: Radioligand binding, human κ-opioid (KOP) membranes, filtration, [3H]-Diprenorphine. The conditions noted are these: compound at 10 μM; [3H]-Diprenorphine. In outline:
as §2

In assay [6] the target is T6, Human δ-opioid (DOP) (Homo sapiens, UniProt P41143).
T6 construct: purchased Perkin Elmer Biosignal
Put plainly: Radioligand binding, human δ-opioid (DOP) membranes, FlashPlate, [3H]-Bremazocine. The conditions noted are these: compound at 10 μM; [3H]-Bremazocine. In outline: as §1

In assay [7] the target is T7, Human neuropeptide Y (NPY-Y1) (Homo sapiens, UniProt P25929).
T7 construct: purchased Perkin Elmer Biosignal
T7 sequence (P25929 1-384): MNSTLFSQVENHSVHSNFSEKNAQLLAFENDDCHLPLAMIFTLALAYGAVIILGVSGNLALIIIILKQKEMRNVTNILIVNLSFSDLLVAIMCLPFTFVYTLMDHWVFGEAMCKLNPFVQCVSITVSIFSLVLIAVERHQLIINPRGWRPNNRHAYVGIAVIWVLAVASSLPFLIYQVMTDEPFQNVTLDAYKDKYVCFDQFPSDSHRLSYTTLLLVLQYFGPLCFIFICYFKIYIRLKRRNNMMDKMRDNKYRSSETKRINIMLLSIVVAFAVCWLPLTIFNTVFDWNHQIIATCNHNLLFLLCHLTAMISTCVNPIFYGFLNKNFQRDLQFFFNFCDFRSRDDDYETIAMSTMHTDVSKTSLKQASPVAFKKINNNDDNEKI
In words: Radioligand binding, human neuropeptide Y NPY-Y1 membranes, FlashPlate, [125I]-PYY. The conditions noted are these: compound at 10 μM; [125I]-PYY. In outline:
as §1

Assay [8] addresses T8, Human Melanocortin (MC3) (Homo sapiens, UniProt P41968).
T8 construct: purchased Perkin Elmer Biosignal
Put plainly: Radioligand binding, human melanocortin MC3 membranes, FlashPlate, [125I]-NDP-αMSH. The conditions noted are these: compound at 10 μM; [125I]-NDP-αMSH. The gist of the method:
as §1

The target in assay [9] is T9, Human melanin-concentrating hormone (MCH1) (Homo sapiens, UniProt Q99705).
T9 construct: purchased Perkin Elmer Biosignal
Put plainly: Radioligand binding, human melanin-concentrating hormone MCH1 membranes, FlashPlate, [125I]-S36057. The conditions noted are these: compound at 10 μM; [125I]-S36057. In outline: as §1

Assay [10] addresses T10, Human Melanocortin (MC4) (Homo sapiens, UniProt P32245).
T10 construct: purchased Perkin Elmer Biosignal
Put plainly: Radioligand binding, human melanocortin MC4 membranes, FlashPlate, [125I]-NDP-αMSH. The conditions noted are these: compound at 10 μM; [125I]-NDP-αMSH. The gist of the method:
as §1

Assay [11] deals with T11, Human melanocortin (MC5) (Homo sapiens, UniProt P33032).
T11 construct: purchased Perkin Elmer Biosignal
Put plainly: Radioligand binding, human melanocortin MC5 membranes, FlashPlate, [125I]-NDP-αMSH. The conditions noted are these: compound at 10 μM; [125I]-NDP-αMSH. The gist of the method: as §1

T1 sequence (P35372 whole entry): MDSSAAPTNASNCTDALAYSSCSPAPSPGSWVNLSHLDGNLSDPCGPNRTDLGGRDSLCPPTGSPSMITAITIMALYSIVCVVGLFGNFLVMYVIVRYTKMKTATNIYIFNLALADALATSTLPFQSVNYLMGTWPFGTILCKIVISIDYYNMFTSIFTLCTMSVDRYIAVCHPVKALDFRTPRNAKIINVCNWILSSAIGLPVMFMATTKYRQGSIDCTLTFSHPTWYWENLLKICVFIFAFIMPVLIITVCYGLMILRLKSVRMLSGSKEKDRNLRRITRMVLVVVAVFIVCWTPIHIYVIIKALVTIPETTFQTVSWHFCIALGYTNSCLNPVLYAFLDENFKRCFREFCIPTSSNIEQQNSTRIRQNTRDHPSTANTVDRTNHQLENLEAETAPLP
T6 sequence (P41143 whole entry): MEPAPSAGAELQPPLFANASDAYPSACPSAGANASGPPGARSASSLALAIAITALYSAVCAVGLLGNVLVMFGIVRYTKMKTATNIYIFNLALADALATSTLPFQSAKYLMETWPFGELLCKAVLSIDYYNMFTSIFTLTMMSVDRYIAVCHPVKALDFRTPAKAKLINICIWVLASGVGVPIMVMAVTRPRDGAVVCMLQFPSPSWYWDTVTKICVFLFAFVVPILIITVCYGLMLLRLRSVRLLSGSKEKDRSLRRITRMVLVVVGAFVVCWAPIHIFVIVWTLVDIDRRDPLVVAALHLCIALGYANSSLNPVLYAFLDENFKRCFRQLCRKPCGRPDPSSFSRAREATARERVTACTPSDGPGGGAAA
T4 sequence (P41146 whole entry): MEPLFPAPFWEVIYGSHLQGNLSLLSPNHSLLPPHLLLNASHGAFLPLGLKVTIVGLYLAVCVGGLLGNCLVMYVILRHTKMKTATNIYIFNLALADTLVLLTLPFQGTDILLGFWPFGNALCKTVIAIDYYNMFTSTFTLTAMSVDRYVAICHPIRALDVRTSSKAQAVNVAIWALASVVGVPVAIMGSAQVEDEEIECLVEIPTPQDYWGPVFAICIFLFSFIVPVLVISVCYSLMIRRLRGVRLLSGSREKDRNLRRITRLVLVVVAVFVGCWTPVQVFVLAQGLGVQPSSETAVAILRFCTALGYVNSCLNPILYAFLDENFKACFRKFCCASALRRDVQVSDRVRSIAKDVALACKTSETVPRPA
T8 sequence (P41968 whole entry): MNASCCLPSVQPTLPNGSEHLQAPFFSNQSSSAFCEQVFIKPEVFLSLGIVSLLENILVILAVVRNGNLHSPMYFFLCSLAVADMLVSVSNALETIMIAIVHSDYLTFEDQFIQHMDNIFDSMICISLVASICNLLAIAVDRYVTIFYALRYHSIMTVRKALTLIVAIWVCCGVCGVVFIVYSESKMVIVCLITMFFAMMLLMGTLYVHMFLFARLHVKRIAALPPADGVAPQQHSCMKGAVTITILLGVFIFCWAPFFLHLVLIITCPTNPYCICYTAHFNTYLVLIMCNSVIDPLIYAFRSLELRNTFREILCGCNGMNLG
T3 sequence (P25103 whole entry): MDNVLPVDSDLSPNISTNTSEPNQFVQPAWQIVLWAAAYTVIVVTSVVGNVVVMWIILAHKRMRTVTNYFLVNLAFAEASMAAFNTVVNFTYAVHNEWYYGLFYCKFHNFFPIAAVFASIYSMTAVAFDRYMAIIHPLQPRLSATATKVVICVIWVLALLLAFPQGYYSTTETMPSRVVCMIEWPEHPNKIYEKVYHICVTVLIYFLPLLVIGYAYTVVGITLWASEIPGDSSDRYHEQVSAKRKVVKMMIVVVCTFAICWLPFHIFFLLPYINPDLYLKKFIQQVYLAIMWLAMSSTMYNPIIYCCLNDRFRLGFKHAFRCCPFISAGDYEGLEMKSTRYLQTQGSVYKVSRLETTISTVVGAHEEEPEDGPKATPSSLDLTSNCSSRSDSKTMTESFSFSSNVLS
T9 sequence (Q99705 whole entry): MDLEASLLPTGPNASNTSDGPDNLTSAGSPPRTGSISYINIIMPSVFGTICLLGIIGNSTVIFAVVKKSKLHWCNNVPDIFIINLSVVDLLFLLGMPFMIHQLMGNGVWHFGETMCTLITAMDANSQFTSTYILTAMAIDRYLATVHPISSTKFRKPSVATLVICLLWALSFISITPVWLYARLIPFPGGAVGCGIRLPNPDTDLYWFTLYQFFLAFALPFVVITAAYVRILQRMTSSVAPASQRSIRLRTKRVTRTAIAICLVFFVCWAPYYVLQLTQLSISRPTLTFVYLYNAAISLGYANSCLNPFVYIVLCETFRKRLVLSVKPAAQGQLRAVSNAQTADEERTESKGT
T5 sequence (P41145 whole entry): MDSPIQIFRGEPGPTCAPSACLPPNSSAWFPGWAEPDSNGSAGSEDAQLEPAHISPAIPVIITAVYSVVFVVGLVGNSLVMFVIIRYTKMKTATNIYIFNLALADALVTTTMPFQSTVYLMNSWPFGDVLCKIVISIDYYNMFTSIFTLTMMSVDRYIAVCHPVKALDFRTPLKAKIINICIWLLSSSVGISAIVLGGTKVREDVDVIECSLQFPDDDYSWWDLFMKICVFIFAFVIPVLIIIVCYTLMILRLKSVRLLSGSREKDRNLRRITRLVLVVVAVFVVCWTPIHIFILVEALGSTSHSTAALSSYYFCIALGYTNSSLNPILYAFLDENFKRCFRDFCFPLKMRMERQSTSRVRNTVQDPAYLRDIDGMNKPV
T11 sequence (P33032 whole entry): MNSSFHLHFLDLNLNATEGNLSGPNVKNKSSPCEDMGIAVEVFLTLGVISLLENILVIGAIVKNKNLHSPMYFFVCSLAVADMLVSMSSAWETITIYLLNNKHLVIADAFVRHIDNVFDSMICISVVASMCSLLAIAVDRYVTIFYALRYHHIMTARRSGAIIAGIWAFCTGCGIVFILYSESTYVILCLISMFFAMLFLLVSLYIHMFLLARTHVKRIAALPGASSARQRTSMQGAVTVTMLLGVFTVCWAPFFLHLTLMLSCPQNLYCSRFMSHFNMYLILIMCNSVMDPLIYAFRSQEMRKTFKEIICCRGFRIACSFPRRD
T10 sequence (P32245 whole entry): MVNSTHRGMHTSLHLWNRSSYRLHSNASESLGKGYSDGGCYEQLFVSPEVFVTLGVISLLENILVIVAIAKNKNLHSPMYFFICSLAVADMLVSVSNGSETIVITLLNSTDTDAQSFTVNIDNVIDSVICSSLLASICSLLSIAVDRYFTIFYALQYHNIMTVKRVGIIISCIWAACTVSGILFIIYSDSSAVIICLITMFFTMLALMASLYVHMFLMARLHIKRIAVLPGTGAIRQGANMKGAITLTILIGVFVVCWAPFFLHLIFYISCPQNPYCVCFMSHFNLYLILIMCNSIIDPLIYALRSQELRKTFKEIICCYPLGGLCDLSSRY

Turning to `COCC1OC(OCc2ccc3ccccc3c2)C(NC(=O)CCNC(=N)N)C(OCc2ccc3ccccc3c2)C1O` (stereo not drawn) [compound 547], the “A7: inhibition of radioligand binding, human μ-opioid (MOP)” value (“A7: inhibition of radioligand binding” below) in [1] is recorded as “− (“−” indicates less than 50% inhibition at 10 μM)”. The “A11: inhibition of radioligand binding, mouse urotensin (mUR2)” value (“A11: inhibition of radioligand binding” for short) in assay [2] is on record as “− (“−” indicates less than 50% inhibition at 10 μM)”. Further, the “A8: inhibition of radioligand binding, human neurokinin (NK1)” value (shortened to “A8: inhibition of radioligand binding”) in assay [3] is “+ (“+” indicates greater than 50% inhibition at 10 μM)”. In addition, the “A10: inhibition of radioligand binding, human opioid (ORL1)” value (shortened to “A10: inhibition of radioligand binding”) in assay [4] is given as “− (“−” indicates less than 50% inhibition at 10 μM)”. In addition, the “A2: inhibition of radioligand binding, human κ-opioid (KOP)” value (from here on “A2: inhibition of radioligand binding”) in assay [5] is reported as “− (“−” indicates less than 50% inhibition at 10 μM)”. Moreover, the “A1: inhibition of radioligand binding, human δ-opioid (DOP)” value (from here on “A1: inhibition … human δ-opioid (DOP)”) in assay [6] is reported as “− (“−” indicates less than 50% inhibition at 10 μM)”. Besides, in assay [7], the “A9: inhibition of radioligand binding, human neuropeptide Y (NPY-Y1)” value (from here on “A9: inhibition of radioligand binding”) was “− (“−” indicates less than 50% inhibition at 10 μM)”. In addition, the “A3: inhibition of radioligand binding, human melanocortin (MC3)” value (“A3: inhibition of radioligand binding” below) in [8] is on record as “− (“−” indicates less than 50% inhibition at 10 μM)”. Moreover, the “A6: inhibition of radioligand binding, human melanin-concentrating hormone (MCH1)” value (“A6: inhibition of radioligand binding” for short) in assay [9] is recorded as “+ (“+” indicates greater than 50% inhibition at 10 μM)”. In [10], the “A4: inhibition of radioligand binding, human melanocortin (MC4)” value (from here on “A4: inhibition of radioligand binding”) is recorded as “− (“−” indicates less than 50% inhibition at 10 μM)”. Moreover, in assay [11], the “A5: inhibition of radioligand binding, human melanocortin (MC5)” value (from here on “A5: inhibition of radioligand binding”) was “− (“−” indicates less than 50% inhibition at 10 μM)”.

Consider `COCC1OC(OCCc2ccccc2)C(NC(=O)CNC(=N)N)C(OCc2ccc(-c3ccccc3)cc2)C1O` (stereo not drawn) [compound 548], for which the “A7: inhibition of radioligand binding” value in assay [1] is given as “− (“−” indicates less than 50% inhibition at 10 μM)”. In assay [2], the “A11: inhibition of radioligand binding” value is given as “− (“−” indicates less than 50% inhibition at 10 μM)”. In addition, the “A8: inhibition of radioligand binding” value in assay [3] (10 µM) is “+ (“+” indicates greater than 50% inhibition at 10 μM)”. Besides, the “A10: inhibition of radioligand binding” value in assay [4] was “− (“−” indicates less than 50% inhibition at 10 μM)”. Also, the “A2: inhibition of radioligand binding” value in [5] is recorded as “− (“−” indicates less than 50% inhibition at 10 μM)”. For the same compound, the “A1: inhibition … human δ-opioid (DOP)” value in [6] is on record as “− (“−” indicates less than 50% inhibition at 10 μM)”. The “A9: inhibition of radioligand binding” value in assay [7] is given as “− (“−” indicates less than 50% inhibition at 10 μM)”. In assay [8], the “A3: inhibition of radioligand binding” value is listed as “− (“−” indicates less than 50% inhibition at 10 μM)”. Besides, the “A6: inhibition of radioligand binding” value in assay [9] was “− (“−” indicates less than 50% inhibition at 10 μM)”. Besides, the “A4: inhibition of radioligand binding” value in assay [10] is “− (“−” indicates less than 50% inhibition at 10 μM)”. Moreover, the “A5: inhibition of radioligand binding” value in assay [11] is “+ (“+” indicates greater than 50% inhibition at 10 μM)”.

As to `COCC1OC(OCCc2ccccc2)C(NC(=O)CNC(=N)N)C(OCc2ccc(-c3ccccc3)cc2)C1O` (stereo not drawn) [compound 549], the “A7: inhibition of radioligand binding” value in [1] is “− (“−” indicates less than 50% inhibition at 10 μM)”. Moreover, in assay [2], the “A11: inhibition of radioligand binding” value is on record as “− (“−” indicates less than 50% inhibition at 10 μM)”. Moreover, in assay [3] (10 µM), the “A8: inhibition of radioligand binding” value was “− (“−” indicates less than 50% inhibition at 10 μM)”. The “A10: inhibition of radioligand binding” value in assay [4] is given as “− (“−” indicates less than 50% inhibition at 10 μM)”. Besides, the “A2: inhibition of radioligand binding” value in assay [5] is given as “− (“−” indicates less than 50% inhibition at 10 μM)”. Besides, the “A1: inhibition … human δ-opioid (DOP)” value in assay [6] is “− (“−” indicates less than 50% inhibition at 10 μM)”. Moreover, in [7], the “A9: inhibition of radioligand binding” value is listed as “− (“−” indicates less than 50% inhibition at 10 μM)”. Also, in assay [8], the “A3: inhibition of radioligand binding” value was “− (“−” indicates less than 50% inhibition at 10 μM)”. Also, in assay [9], the “A6: inhibition of radioligand binding” value is listed as “− (“−” indicates less than 50% inhibition at 10 μM)”. Also, the “A4: inhibition of radioligand binding” value in [10] is on record as “− (“−” indicates less than 50% inhibition at 10 μM)”. For the same compound, in assay [11], the “A5: inhibition of radioligand binding” value is reported as “+ (“+” indicates greater than 50% inhibition at 10 μM)”.

The values are drawn from patent US20080009418A1, “Selective Inhibitors” (Alchemia LTD., priority 2004, published 2008).
